Source: publication PMC4306947, “Synthesis and Antiproliferative Activity of Thiazolyl-bis-pyrrolo[2,3-b]pyridines and Indolyl-thiazolyl-pyrrolo[2,3-c]pyridines, Nortopsentin Analogues” (Marine Drugs, 2015)

Row | Compound | melting point
1 | Cn1cc(-c2nc(-c3c[nH]c4c(Cl)nccc34)cs2)c2ccccc21 [Compound 2a, 7-Chloro-3-[2-(1-methyl-1H-indol-3-yl)-1,3-thiazol-4-yl]-1H-pyrrolo[2,3-c]pyridine] | 326 to 327 °C
2 | Cn1cc(C2(c3c[nH]c4ncccc34)CSC=N2)c2cccnc21 (stereo not shown) [Compound 1j, 1-Methyl-3-[4-(1H-pyrrolo[2,3-b]pyridin-3-yl)-1,3-thiazol-4-yl]-1H-pyrrolo[2,3-b]pyridine] | 303 to 304 °C
3 | COc1ccc2c(c1)c(-c1nc(-c3c[nH]c4c(Cl)nccc34)cs1)cn2C [Compound 2b, 7-Chloro-3-[2-(5-methoxy-1-methyl-1H-indol-3-yl)-1,3-thiazol-4-yl]-1H-pyrrolo[2,3-c]pyridine] | 216 to 217 °C
4 | Cn1cc(-c2nc(-c3cn(C)c4c(Cl)nccc34)cs2)c2cc(F)ccc21 [Compound 2h, 7-Chloro-3-[2-(5-fluoro-1-methyl-1H-indol-3-yl)-1,3-thiazol-4-yl]-1-methyl-1H-pyrrolo[2,3-c]pyridine] | 284 to 285 °C
5 | Cn1cc(-c2nc(-c3c[nH]c4c(Cl)nccc34)cs2)c2cc(Br)ccc21 [Compound 2c, 3-[2-(5-Bromo-1-methyl-1H-indol-3-yl)-1,3-thiazol-4-yl]-7-chloro-1H-pyrrolo[2,3-c]pyridine] | 374 to 375 °C
6 | Cn1cc(-c2csc(-c3cn(C)c4ncccc34)n2)c2cc(Br)cnc21 [Compound 1h, 5-Bromo-1-methyl-3-[2-(1-methyl-1H-pyrrolo[2,3-b]pyridin-3-yl)-1,3-thiazol-4-yl]-1H pyrrolo[2,3-b]pyridine] | 308 °C
7 | Cn1cc(-c2nc(-c3c[nH]c4ncccc34)cs2)c2cccnc21 [Compound 1d, 1-Methyl-3-[4-(1H-pyrrolo[2,3-b]pyridin-3-yl)-1,3-thiazol-2-yl]-1H-pyrrolo[2,3-b]pyridine] | 278 to 279 °C
8 | Cn1cc(-c2csc(-c3cn(C)c4ncccc34)n2)c2cc(F)cnc21 [Compound 1i, 5-Fluoro-1-methyl-3-[2-(1-methyl-1H-pyrrolo[2,3-b]pyridin-3-yl)-1,3-thiazol-4-yl]-1H-pyrrolo[2,3-b]pyridine] | 301 to 302 °C
9 | Cn1cc(-c2csc(-c3cn(C)c4ncccc34)n2)c2cccnc21 [Compound 1g, 3,3′-(1,3-Thiazole-2,4-diyl)bis(1-methyl-1H-pyrrolo[2,3-b]pyridine)] | 310 to 311 °C
10 | Brc1cnc2[nH]cc(-c3csc(-c4c[nH]c5ncccc45)n3)c2c1 [Compound 1b, 5-Bromo-3-[2-(1H-pyrrolo[2,3-b]pyridin-3-yl)-1,3-thiazol-4-yl)-1H-pyrrolo[2,3-b]pyridine] | 390 to 391 °C
11 | c1cnc2[nH]cc(-c3csc(-c4c[nH]c5ncccc45)n3)c2c1 [Compound 1a, 3,3′-(1,3-Thiazole-2,4-diyl)bis(1H-pyrrolo[2,3-b]pyridine)] | 346 to 347 °C
12 | Cn1cc(-c2csc(-c3c[nH]c4ncccc34)n2)c2cc(F)cnc21 [Compound 1l, 5-Fluoro-1-methyl-3-[2-(1H-pyrrolo[2,3-b]pyridin-3-yl)-1,3-thiazol-4-yl]-1H-pyrrolo[2,3-b]pyridine] | 295 to 296 °C
13 | Cn1cc(-c2nc(-c3cn(C)c4c(Cl)nccc34)cs2)c2ccccc21 [Compound 2e, 7-Chloro-1-methyl-3-[2-(1-methyl-1H-indol-3-yl)-1,3-thiazol-4-yl]-1H-pyrrolo[2,3-c]pyridine] | 265 to 266 °C
14 | Cn1cc(-c2nc(-c3c[nH]c4ncc(Br)cc34)cs2)c2cccnc21 [Compound 1e, 3-[4-(5-Bromo-1H-pyrrolo[2,3-b]pyridin-3-yl)-1,3-thiazol-2-yl]-1-methyl-1H-pyrrolo[2,3-b]pyridine] | 311 °C
15 | Fc1cnc2[nH]cc(-c3csc(-c4c[nH]c5ncccc45)n3)c2c1 [Compound 1c, 5-Fluoro-3-[2-(1H-pyrrolo[2,3-b]pyridin-3-yl)-1,3-thiazol-4-yl]-1H-pyrrolo[2,3-b]pyridine] | 373 to 374 °C
16 | COc1ccc2c(c1)c(-c1nc(-c3cn(C)c4c(Cl)nccc34)cs1)cn2C [Compound 2f, 7-Chloro-3-[2-(5-methoxy-1-methyl-1H-indol-3-yl)-1,3-thiazol-4-yl]-1-methyl-1H-pyrrolo[2,3-c]pyridine] | 231 to 232 °C
17 | Cn1cc(-c2nc(-c3c[nH]c4c(Cl)nccc34)cs2)c2cc(F)ccc21 [Compound 2d, 7-Chloro-3-[2-(5-fluoro-1-methyl-1H-indol-3-yl)-1,3-thiazol-4-yl]-1H-pyrrolo[2,3-c]pyridine] | 337 to 338 °C
18 | Cn1cc(-c2csc(-c3c[nH]c4ccc(F)cc34)n2)c2ccnc(Cl)c21 [Compound 2i, 7-Chloro-3-[2-(5-fluoro-1H-indol-3-yl)-1,3-thiazol-4-yl]-1-methyl-1H-pyrrolo[2,3-c]pyridine] | 284 to 285 °C
19 | Fc1ccc2[nH]cc(-c3nc(-c4c[nH]c5c(Cl)nccc45)cs3)c2c1 [Compound 2j, 7-Chloro-3-[2-(5-fluoro-1H-indol-3-yl)-1,3-thiazol-4-yl]-1H-pyrrolo[2,3-c]pyridine] | 281 to 282 °C
20 | Cn1cc(-c2nc(-c3cn(C)c4c(Cl)nccc34)cs2)c2cc(Br)ccc21 [Compound 2g, 3-[2-(5-Bromo-1-methyl-1H-indol-3-yl)-1,3-thiazol-4-yl]-7-chloro-1-methyl-1H-pyrrolo[2,3-c]pyridine] | 249 to 250 °C
21 | Cn1cc(-c2nc(-c3c[nH]c4ncc(F)cc34)cs2)c2cccnc21 [Compound 1f, 3-[4-(5-Fluoro-1H-pyrrolo[2,3-b]pyridin-3-yl)-1,3-thiazol-2-yl]-1-methyl-1H-pyrrolo[2,3-b]pyridine] | 316 °C

Continued, values first:

Row | melting point | Compound
22 | 273 to 274 °C | Cn1cc(-c2csc(-c3c[nH]c4ccc(Br)cc34)n2)c2ccnc(Cl)c21 [Compound 4f, 3-[2-(5-Bromo-1H-indol-3-yl)-1,3-thiazol-4-yl]-7-chloro-1-methyl-1H-pyrrolo[2,3-c]pyridine]
23 | 279 to 280 °C | Cn1cc(-c2csc(-c3cn(C(=O)OC(C)(C)C)c4ccccc34)n2)c2ccnc(Cl)c21 [Compound 3d, Tert-Butyl 3-[4-(7-chloro-1-methyl-1H-pyrrolo[2,3-c]pyridin-3-yl)-1,3-thiazol-2-yl]-1H-indole-1-carboxylate]
24 | 184 to 185 °C | COc1ccc2[nH]cc(-c3nc(-c4cn(C)c5c(Cl)nccc45)cs3)c2c1 [Compound 4e, 7-Chloro-3-[2-(5-methoxy-1H-indol-3-yl)-1,3-thiazol-4-yl]-1-methyl-1H-pyrrolo[2,3-c]pyridine]
25 | 257 °C | Cn1cc(-c2csc(-c3cn(C(=O)OC(C)(C)C)c4ccc(Br)cc34)n2)c2ccnc(Cl)c21 [Compound 3f, Tert-Butyl 5-bromo-3-[4-(7-chloro-1-methyl-1H-pyrrolo[2,3-c]pyridin-3-yl)-1,3-thiazol-2-yl]-1H-indole-1-carboxylate]
26 | 210 to 211 °C | Cn1cc(-c2csc(-c3c[nH]c4ccccc34)n2)c2ccnc(Cl)c21 [Compound 4d, 7-Chloro-3-[2-(1H-indol-3-yl)-1,3-thiazol-4-yl]-1-methyl-1H-pyrrolo[2,3-c]pyridine]
27 | 312 to 313 °C | COc1ccc2c(c1)c(-c1nc(-c3c[nH]c4c(Cl)nccc34)cs1)cn2C(=O)OC(C)(C)C [Compound 3b, Tert-Butyl 3-[4-(7-chloro-1H-pyrrolo[2,3-c]pyridin-3-yl)-1,3-thiazol-2-yl]-5-methoxy-1H-indole-1-carboxylate]
28 | 271 to 272 °C | Clc1nccc2c(-c3csc(-c4c[nH]c5ccccc45)n3)c[nH]c12 [Compound 4a, 7-Chloro-3-[2-(1H-indol-3-yl)-1,3-thiazol-4-yl]-1H-pyrrolo[2,3-c]pyridine]
29 | 225 to 226 °C | CC(C)(C)OC(=O)n1cc(-c2nc(-c3c[nH]c4c(Cl)nccc34)cs2)c2ccccc21 [Compound 3a, Tert-Butyl 3-[4-(7-Chloro-1H-pyrrolo[2,3-c]pyridin-3-yl)-1,3-thiazol-2-yl]-1H-indole-1-carboxylate]
30 | 241 to 242 °C | CC(C)(C)OC(=O)n1cc(-c2nc(-c3c[nH]c4c(Cl)nccc34)cs2)c2cc(Br)ccc21 [Compound 3c, Tert-Butyl 5-bromo-3-[4-(7-chloro-1H-pyrrolo[2,3-c]pyridin-3-yl)-1,3-thiazol-2-yl]-1H-indole-1-carboxylate]
31 | 223 to 224 °C | COc1ccc2[nH]cc(-c3nc(-c4c[nH]c5c(Cl)nccc45)cs3)c2c1 [Compound 4b, 7-Chloro-3-[2-(5-methoxy-1H-indol-3-yl)-1,3-thiazol-4-yl]-1H-pyrrolo[2,3-c]pyridine]
